Laboratory results as given in PMC7450057, “Enhancing intracellular accumulation and target engagement of PROTACs with reversible covalent chemistry” (Nature Communications, 2020).
Where “and” joins values, the source holds several entries; their conditions need not be identical. Equal values may be shown once. Entries after “also recorded” stand apart in the source; their conditions may differ.

Experiments:
[1] = biological target: T1, {BTK-PROTAC-CRBN} ternary complex (Homo sapiens, UniProt Q06187+Q96SW2); experiment: BTK-SPPIER imaging of ternary complex formation in live cells; format: cell-based; conditions: HEK293T/17 cells, 10 µM
T1 construct: full-length CRBN was first cloned into pcDNA3 containing EGFP; expressed in transfected cells; host or cells: HEK293T/17
T1 sequence (Q06187 382-659 limits assumed): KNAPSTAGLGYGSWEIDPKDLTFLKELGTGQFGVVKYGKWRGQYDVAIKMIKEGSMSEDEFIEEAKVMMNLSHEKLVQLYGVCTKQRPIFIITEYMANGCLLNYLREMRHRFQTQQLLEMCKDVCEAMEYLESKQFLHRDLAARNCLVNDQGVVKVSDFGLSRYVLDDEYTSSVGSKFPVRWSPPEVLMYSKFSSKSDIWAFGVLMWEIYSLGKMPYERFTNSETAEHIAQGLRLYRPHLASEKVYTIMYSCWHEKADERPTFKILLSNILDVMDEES
T1 sequence (Q96SW2 whole entry): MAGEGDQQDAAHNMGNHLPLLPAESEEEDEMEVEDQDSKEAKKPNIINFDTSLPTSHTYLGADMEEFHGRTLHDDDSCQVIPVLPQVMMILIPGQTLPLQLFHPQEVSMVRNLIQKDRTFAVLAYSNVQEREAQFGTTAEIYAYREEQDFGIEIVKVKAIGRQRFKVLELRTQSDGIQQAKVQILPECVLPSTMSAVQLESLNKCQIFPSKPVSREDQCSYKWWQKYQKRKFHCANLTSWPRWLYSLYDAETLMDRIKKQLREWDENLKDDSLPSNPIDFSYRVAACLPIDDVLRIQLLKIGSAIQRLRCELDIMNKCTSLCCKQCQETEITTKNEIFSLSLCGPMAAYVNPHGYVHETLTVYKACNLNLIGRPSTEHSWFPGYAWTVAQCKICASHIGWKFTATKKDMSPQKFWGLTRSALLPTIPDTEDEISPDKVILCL
Excerpt: To visualize small molecule-induced protein–protein interactions (PPIs), we recently applied fluorophore phase transition-based principle and designed a PPI assay named separation of phases-based protein interaction reporter (SPPIER)[36]. A SPPIER protein design includes three domains, a protein-of-interest, an enhanced GFP (EGFP), and a homo-oligomeric tag (HOTag). Upon small molecule-induced PPI between two proteins-of-interest, multivalent PPIs from HOTags drive EGFP phase separation, forming brightly fluorescent droplets. […] If PROTACs can induce {BTK-PROTAC-CRBN} ternary complex formation in cells, they will crosslink the BTK^KD-EGFP-HOTag6 tetramers and the CRBN-EGFP-HOTag3 hexamers to produce EGFP phase separation, which can be conveniently visualized with a fluorescence microscope. […]
HEK293T/17 cells were transiently transfected with the plasmid using calcium phosphate transfection reagent or lipofectamine. […] Fluorescence images were acquired with an exposure time of 50 ms for EGFP. […]
For analysis of the SPPIER signal, images were processed in imageJ. The sum of droplet pixel fluorescence intensity and cell pixel intensity was scored using the Analyze Particle function in imageJ.

[2] = test system: BTK, pBTK, IKZF1, and IKZF3; experiment: Degradation of BTK, pBTK, IKZF1 and IKZF3 in Mino cells (western blot); format: cell-based
Description: (§1) The collected cells and spleen tissues were lysed in RIPA lysis buffer (50 mM Tris-HCl, pH 7.4, 150 mM NaCl, 1% NP-40, 0.5% sodium deoxycholate, 0.1% SDS) supplemented with Halt™ Protease and Phosphatase Inhibitor Cocktail (Thermo Fisher Scientific, Cat. No. PI78440) immediately before use. Lysates were centrifuged at 15,000 × g for 10 min at 4 °C and the supernatant was quantified for total protein concentration using the Pierce BCA Protein Assay (Thermo Fisher Scientific, Cat. No. 23225). Thirty micrograms of protein were loaded onto sodium dodecyl sulfate−polyacrylamide gel for electrophoresis (Bio-Rad) and transferred onto PVDF membranes (Millipore, Cat. No. IPVH00010). […] Imaging was performed using the ECL Prime chemiluminescent western blot detection reagents (GE Healthcare, Cat. No. RPN2232) by visualization of the blots to X-Ray film or with an Imager (Kindle Biosciences, Cat. No. D1001). All western blots were subsequently processed and quantified with Imager software. Protein level was normalized to β-actin or GAPDH loading controls.

wild-type BTK = biological target: T2, wild-type BTK (Homo sapiens, UniProt Q06187); experiment: BTK degradation in XLA cells overexpressing wild-type BTK (western blot); format: cell-based; conditions: 24 h
T2 construct: expressed in transfected cells; host or cells: XLA cells (gift from Dr. Woyach)
T2 sequence (Q06187 whole entry): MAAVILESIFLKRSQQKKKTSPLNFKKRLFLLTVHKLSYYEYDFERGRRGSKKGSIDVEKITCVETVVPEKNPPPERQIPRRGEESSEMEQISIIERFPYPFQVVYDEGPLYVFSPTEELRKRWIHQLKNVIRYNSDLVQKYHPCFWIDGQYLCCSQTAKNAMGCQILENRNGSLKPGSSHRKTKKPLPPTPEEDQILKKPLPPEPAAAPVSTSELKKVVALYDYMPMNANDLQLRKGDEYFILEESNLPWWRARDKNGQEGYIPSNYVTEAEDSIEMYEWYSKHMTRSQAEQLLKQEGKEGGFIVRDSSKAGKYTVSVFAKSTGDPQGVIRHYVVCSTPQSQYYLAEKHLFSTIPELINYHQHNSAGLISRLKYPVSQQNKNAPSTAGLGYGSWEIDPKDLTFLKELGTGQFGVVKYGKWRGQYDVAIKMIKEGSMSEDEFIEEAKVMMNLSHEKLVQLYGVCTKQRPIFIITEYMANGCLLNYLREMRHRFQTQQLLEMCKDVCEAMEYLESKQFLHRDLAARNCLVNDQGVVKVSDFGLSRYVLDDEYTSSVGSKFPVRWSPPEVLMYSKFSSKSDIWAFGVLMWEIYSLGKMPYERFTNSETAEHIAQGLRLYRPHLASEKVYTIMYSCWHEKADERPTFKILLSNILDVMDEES
Description: XLA cells overexpressing wild-type BTK or mutant C481S BTK were plated at the same cell number and density as the above experiments and were treated with RC-1, IRC-1, or RNC-1 at the dose of 1.6, 8.0, 40, 200, and 1000 nM for 24 h. After completion of treatment, all the cells were collected and processed for western blot analysis.
as §1

BTK = BTK (Mus musculus, UniProt P35991); experiment: Pharmacodynamics: splenic BTK level in mice (western blot); format: in vivo, ICR mice; parameters: from tissue; host or cells: spleen of female ICR mice; conditions: for BTK level, mean: Figure 5d, DMSO = 100; for BTK quantification: Supplementary Figure 8, individual animals
Chain of BTK (P35991 whole entry): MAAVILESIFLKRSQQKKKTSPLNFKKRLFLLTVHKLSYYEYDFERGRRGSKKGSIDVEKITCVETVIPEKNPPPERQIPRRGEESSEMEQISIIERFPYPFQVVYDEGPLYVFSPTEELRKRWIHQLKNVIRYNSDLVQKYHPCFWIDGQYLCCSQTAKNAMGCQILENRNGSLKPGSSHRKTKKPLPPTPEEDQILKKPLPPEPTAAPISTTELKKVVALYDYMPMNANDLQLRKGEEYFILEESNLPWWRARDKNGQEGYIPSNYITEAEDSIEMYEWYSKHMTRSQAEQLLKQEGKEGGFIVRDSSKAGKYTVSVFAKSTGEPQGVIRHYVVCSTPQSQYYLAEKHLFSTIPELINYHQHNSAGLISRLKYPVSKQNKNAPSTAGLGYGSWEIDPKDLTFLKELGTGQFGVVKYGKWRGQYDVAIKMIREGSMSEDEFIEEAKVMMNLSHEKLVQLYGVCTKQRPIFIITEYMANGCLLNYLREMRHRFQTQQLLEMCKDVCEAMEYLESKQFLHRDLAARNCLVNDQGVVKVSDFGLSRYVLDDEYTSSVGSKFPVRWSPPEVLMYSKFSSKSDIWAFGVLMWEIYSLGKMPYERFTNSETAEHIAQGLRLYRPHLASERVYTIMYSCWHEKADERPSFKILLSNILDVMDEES
Description: as §1
To investigate the protein degradation effect of RC-1 in vivo, mice were subjected to single RC-1 administration at the dose of 50 or 100 mg kg^−1 (i.p.) or seven once-daily RC-1 administration at the dose of 20 mg kg^−1 (i.p.) (n = 2–3). Twenty-four hours after the one-time RC-1 injection or 24 h after the 7th injection, mice were anesthetized with isoflurane and the whole spleen was dissected and stored at −80 °C for western blot analysis of protein level.

CN(CCCNC(=O)CNc1cccc2c1C(=O)N(C1CCC(=O)NC1=O)C2=O)C(C)(C)C=C(C#N)C(=O)N1CCC[C@@H](n2nc(-c3ccc(Oc4ccccc4)cc3)c3c(N)ncnc32)C1 (some centres unmarked) [RC-1]
green fluorescent droplets (ternary complex formation) [1]: induced appreciable green fluorescent droplets | degradation of BTK, pBTK, IKZF1, IKZF3 (in words) [2]: induced degradation of BTK, pBTK, IKZF1, and IKZF3; also recorded: can degrade not only BTK and phosphorylated BTK but also IKZF1 and IKZF3 | BTK degradation (in words) (wild-type BTK): dose-dependent BTK degradation; also recorded: degrades both wild-type BTK and the C481S mutant with similar potency | BTK level reduction in the spleens (BTK; 20 mg kg^−1 i.p., 7 daily injections, vs vehicle-treated mice): ~ 50% | BTK level, mean (BTK; 1 injection): 58.8522 | BTK level, mean (BTK; 7 injections): 59.7357 | BTK quantification (BTK; RC-1 50 mg/kg, 50 mg/kg): 56.2321 and 63.4217 and 82.4136 and 62.324 | BTK quantification (BTK; RC-1 100 mg/kg, 100 mg/kg): 59.6665 and 43.7954 and 40.8615
